Test results from PubChem BioAssay (NCI).
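Compound exposure: 48 hours, 5 concentrations, 96-well plates. Here, GI50 denotes the concentration required for 50% inhibition of growth. The concentration for full growth arrest is given as TGI.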

Key:
Test in all cases: inhibition of tumour cell growth, NCI panel, 48 h; in the data active = GI50 below about 0.43 µM; inactive = the rest
A498 renal = system: A498 renal
COLO 205 colon = system: COLO 205 colon
EKVX NSCLC = system: EKVX NSCLC
RXF 393 renal = system: RXF 393 renal
SF-268 CNS = system: SF-268 CNS
SF-295 CNS = system: SF-295 CNS
SK-OV-3 ovarian = system: SK-OV-3 ovarian
SNB-19 CNS = system: SNB-19 CNS
SW-620 colon = system: SW-620 colon
MDA-MB-435 = system: MDA-MB-435

CN1C(=O)CC2(C)c3cc(O)cc(Br)c3N(C)C12 (stereo not given)
> 100 µM: TGI (A498 renal) | TGI (COLO 205 colon) | TGI (EKVX NSCLC) | TGI (RXF 393 renal) | TGI (SF-268 CNS) | TGI (SF-295 CNS) | TGI (SK-OV-3 ovarian) | TGI (SNB-19 CNS) | TGI (SW-620 colon)

CC1(C)NC(=O)N(CCCCCCN2C(=O)NC(C)(C)C2=O)C1=O
> 100 µM: TGI (A498 renal) | TGI (COLO 205 colon) | TGI (EKVX NSCLC) | TGI (RXF 393 renal) | TGI (SF-268 CNS) | TGI (SK-OV-3 ovarian) | TGI (SNB-19 CNS) | TGI (SW-620 colon)

Cc1ccccc1C1=C(c2cn(C)c3ccccc23)C(=O)NC1=O
> 25 µM: TGI (COLO 205 colon) | TGI (MDA-MB-435) | TGI (RXF 393 renal) | TGI (SF-268 CNS) | TGI (SF-295 CNS) | TGI (SK-OV-3 ovarian) | TGI (SNB-19 CNS) | TGI (SW-620 colon)
inactive: GI50 (A498 renal) 6.52 µM | GI50 (COLO 205 colon) 9.01 µM | GI50 (MDA-MB-435) > 21.5 µM | GI50 (RXF 393 renal) 7.02 µM | GI50 (SF-268 CNS) > 25 µM | GI50 (SF-295 CNS) 14.7 µM | GI50 (SK-OV-3 ovarian) > 25 µM | GI50 (SNB-19 CNS) > 25 µM | GI50 (SW-620 colon) 12.1 µM
20.7 µM: TGI (A498 renal)

COc1cccc(C=O)c1C(=O)c1cc(O)ccc1O
> 100 µM: TGI (SF-295 CNS) | TGI (SK-OV-3 ovarian) | TGI (SNB-19 CNS)
> 63.7 µM: TGI (A498 renal)
34.1 µM: TGI (COLO 205 colon)
33.2 µM: TGI (SW-620 colon)
32.2 µM: TGI (RXF 393 renal)
37.9 µM: TGI (EKVX NSCLC)
> 55.4 µM: TGI (SF-268 CNS)

CCc1ccccc1NC(=O)C(=O)C(C#N)c1ccccc1Cl (stereo not given)
> 100 µM: TGI (A498 renal) | TGI (COLO 205 colon) | TGI (EKVX NSCLC) | TGI (RXF 393 renal) | TGI (SF-268 CNS) | TGI (SF-295 CNS) | TGI (SNB-19 CNS) | TGI (SW-620 colon)

O=C(CCC(=O)Nc1ccc(Cl)c(Cl)c1)CC(=O)c1ccc2ccccc2c1
> 100 µM: TGI (A498 renal) | TGI (EKVX NSCLC) | TGI (RXF 393 renal) | TGI (SF-268 CNS) | TGI (SF-295 CNS) | TGI (SNB-19 CNS) | TGI (SW-620 colon)

[O-]/N=[N+](/[O-])C1CCCCC1=[N+]1CCOCC1 (stereo not given)
> 100 µM: TGI (A498 renal) | TGI (COLO 205 colon) | TGI (EKVX NSCLC) | TGI (SF-268 CNS) | TGI (SF-295 CNS) | TGI (SK-OV-3 ovarian) | TGI (SNB-19 CNS) | TGI (SW-620 colon)

COC(=O)Oc1nn(C(=O)OC)c(=O)c2ccccc12
> 100 µM: TGI (COLO 205 colon) | TGI (EKVX NSCLC) | TGI (MDA-MB-435) | TGI (SF-268 CNS) | TGI (SF-295 CNS) | TGI (SK-OV-3 ovarian) | TGI (SNB-19 CNS) | TGI (SW-620 colon)

COc1cc2c(cc1OC)C(C#N)N(C(=O)c1ccccc1)C=C2OC(=O)c1ccccc1 (stereo not given)
86 µM: TGI (SF-268 CNS)
45.4 µM: TGI (SF-295 CNS)
67.5 µM: TGI (SNB-19 CNS)
71.9 µM: TGI (EKVX NSCLC)
> 100 µM: TGI (COLO 205 colon) | TGI (SK-OV-3 ovarian) | TGI (SW-620 colon)

COc1ccc(-c2coc3cc(O)ccc3c2=O)cc1
> 100 µM: TGI (A498 renal) | TGI (COLO 205 colon) | TGI (MDA-MB-435) | TGI (SF-268 CNS) | TGI (SF-295 CNS) | TGI (SK-OV-3 ovarian) | TGI (SNB-19 CNS) | TGI (SW-620 colon)

Nc1nc(N)c(CCCCc2ccccc2)c(C=O)n1
> 100 µM: TGI (A498 renal) | TGI (COLO 205 colon)
95.5 µM: TGI (SK-OV-3 ovarian)
46.4 µM: TGI (EKVX NSCLC)
43.3 µM: TGI (SF-268 CNS)
64.7 µM: TGI (SF-295 CNS)
38.3 µM: TGI (SNB-19 CNS)
30.9 µM: TGI (SW-620 colon)

O=C(NC(=Nc1ccccc1)SCSC(=Nc1ccccc1)NC(=O)c1ccco1)c1ccco1
> 100 µM: TGI (COLO 205 colon) | TGI (EKVX NSCLC) | TGI (SF-268 CNS) | TGI (SW-620 colon)
79.1 µM: TGI (SNB-19 CNS)
98.2 µM: TGI (A498 renal)
78.4 µM: TGI (SF-295 CNS)
55 µM: TGI (RXF 393 renal)

NC1N=Nc2ccccc21 (stereo not given)
> 100 µM: TGI (COLO 205 colon) | TGI (EKVX NSCLC) | TGI (RXF 393 renal) | TGI (SF-268 CNS) | TGI (SF-295 CNS) | TGI (SK-OV-3 ovarian) | TGI (SNB-19 CNS) | TGI (SW-620 colon)

O=[N+]([O-])c1cc(-c2nc(=S)[nH][nH]2)ccc1O
18.4 µM: TGI (SW-620 colon)
35.9 µM: TGI (COLO 205 colon)
> 100 µM: TGI (A498 renal) | TGI (EKVX NSCLC) | TGI (RXF 393 renal) | TGI (SF-268 CNS) | TGI (SF-295 CNS) | TGI (SK-OV-3 ovarian) | TGI (SNB-19 CNS)

COc1cc(-c2cc3ncccc3c3nc(OCCN(C)C)c4cccnc4c23)cc(OC)c1OC
15.2 µM: TGI (SW-620 colon)
2.18 µM: TGI (SK-OV-3 ovarian)
active: GI50 (SW-620 colon) 0.324 µM
3.24 µM: TGI (EKVX NSCLC)
29.5 µM: TGI (SNB-19 CNS)
2.39 µM: TGI (SF-295 CNS)
3.75 µM: TGI (MDA-MB-435)
2.07 µM: TGI (RXF 393 renal)
11 µM: TGI (SF-268 CNS)
inactive: GI50 (EKVX NSCLC) 0.513 µM | GI50 (MDA-MB-435) 0.671 µM | GI50 (RXF 393 renal) 0.473 µM | GI50 (SF-268 CNS) 0.637 µM | GI50 (SF-295 CNS) 0.533 µM | GI50 (SK-OV-3 ovarian) 0.458 µM | GI50 (SNB-19 CNS) 0.576 µM

N#CCCN(CCC#N)c1ccc(/C=C(/NC(=O)c2cc([N+](=O)[O-])ccc2Cl)C(=O)NN)cc1
> 100 µM: TGI (A498 renal) | TGI (COLO 205 colon) | TGI (EKVX NSCLC) | TGI (RXF 393 renal) | TGI (SF-268 CNS) | TGI (SF-295 CNS) | TGI (SK-OV-3 ovarian) | TGI (SNB-19 CNS) | TGI (SW-620 colon)

COc1cc2c3c(n(CCCN(CCCN(CCCn4c5c(c6ccccc6c4=O)C(=O)c4ccccc4-5)C(=O)OC(C)(C)C)C(=O)OC(C)(C)C)c(=O)c2cc1OC)-c1cc2c(cc1C3=O)OCO2
34 µM: TGI (EKVX NSCLC)
inactive: GI50 (COLO 205 colon) > 100 µM | GI50 (EKVX NSCLC) 11.8 µM | GI50 (MDA-MB-435) > 100 µM | GI50 (RXF 393 renal) > 100 µM | GI50 (SF-268 CNS) > 100 µM | GI50 (SF-295 CNS) > 100 µM | GI50 (SK-OV-3 ovarian) > 100 µM | GI50 (SNB-19 CNS) > 100 µM | GI50 (SW-620 colon) > 100 µM
> 100 µM: TGI (COLO 205 colon) | TGI (MDA-MB-435) | TGI (RXF 393 renal) | TGI (SF-268 CNS) | TGI (SF-295 CNS) | TGI (SK-OV-3 ovarian) | TGI (SNB-19 CNS) | TGI (SW-620 colon)

CC(=O)OCC12CN(C#N)C3C4COC(CC41)C1(C(=O)N(C)c4ccccc41)C32 (stereo not given)
38.3 µM: TGI (RXF 393 renal)
88.9 µM: TGI (EKVX NSCLC)
59.6 µM: TGI (SW-620 colon)
> 100 µM: TGI (MDA-MB-435) | TGI (SF-268 CNS) | TGI (SF-295 CNS) | TGI (SK-OV-3 ovarian)
35.8 µM: TGI (COLO 205 colon)

CC1CCC2C(C)C(=O)OC3OC4(C)CCC1C32OO4 (stereo not given)
> 100 µM: TGI (A498 renal) | TGI (COLO 205 colon) | TGI (EKVX NSCLC) | TGI (RXF 393 renal) | TGI (SF-268 CNS) | TGI (SF-295 CNS) | TGI (SK-OV-3 ovarian) | TGI (SNB-19 CNS) | TGI (SW-620 colon)
inactive: GI50 (A498 renal) > 100 µM | GI50 (COLO 205 colon) > 100 µM | GI50 (SNB-19 CNS) > 100 µM | GI50 (SW-620 colon) > 100 µM

Cc1cc(=O)[nH]c(CNC(=O)c2ccc3ccccc3c2)n1
> 100 µM: TGI (A498 renal) | TGI (COLO 205 colon) | TGI (EKVX NSCLC) | TGI (RXF 393 renal) | TGI (SF-268 CNS) | TGI (SF-295 CNS) | TGI (SK-OV-3 ovarian) | TGI (SNB-19 CNS) | TGI (SW-620 colon)

O=C(Cc1ccccc1[N+](=O)[O-])C(CO)c1ccccc1[N+](=O)[O-] (stereo not given)
> 100 µM: TGI (A498 renal) | TGI (COLO 205 colon) | TGI (EKVX NSCLC) | TGI (RXF 393 renal) | TGI (SF-268 CNS) | TGI (SF-295 CNS) | TGI (SK-OV-3 ovarian) | TGI (SNB-19 CNS) | TGI (SW-620 colon)
